Source: the supplement of paper PMC10307832

Experiments:
Assay in all cases: relative viability (nuclei count vs DMSO), 5 days (fraction); higher = more cells survive
QS11 + Foretinib = compound: C1CC2=C(C1)C=C(C=C2)OC3=NC(=C4C(=N3)N(C=N4)CC5=CC=C(C=C5)C6=CC=CC=C6)N[C@@H](CC7=CC=CC=C7)CO [QS11] + COc1cc2c(Oc3ccc(NC(=O)C4(C(=O)Nc5ccc(F)cc5)CC4)cc3F)ccnc2cc1OCCCN1CCOCC1 [Foretinib] (partner 0.25 µM)
In short: (§1)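 Nuclei were stained with Hoechst during a one-step fixation (final 0.05% Triton X-100, 1% formaldehyde, 1 ug/ml Hoechst) carried out 5 days after dosing, then counted on 4× images. The cells, lung cancer lines in 1536-well plates, had been dosed by pin tool the day after seeding with one drug alone or a fixed anchor-drug dose plus five library-drug doses (not always all listed) in √10 steps. Relative viability is the nuclei count in treated wells divided by that in vehicle wells, and each value is the median of duplicate plates.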

AZ628 + Pemetrexed = compound: CC1=C(C=C(C=C1)NC(=O)C2=CC(=CC=C2)C(C)(C)C#N)NC3=CC4=C(C=C3)N=CN(C4=O)C [AZ628] + Nc1nc2[nH]cc(CCc3ccc(C(=O)N[C@@H](CCC(=O)O)C(=O)O)cc3)c2c(=O)[nH]1 [Pemetrexed] (partner 0.2 µM)
In short: as §1

[1] = compound: C[As](C)SC[C@H](NC(=O)CC[C@H](N)C(=O)O)C(=O)NCC(=O)O [Darinaparsin] + Cc1cc(Nc2cc(N3CCN(C)CC3)nc(Sc3ccc(NC(=O)C4CC4)cc3)n2)n[nH]1 [Tozasertib] (partner 0.1 µM)
In short: as §1

[2] = compound: C[As](C)SC[C@H](NC(=O)CC[C@H](N)C(=O)O)C(=O)NCC(=O)O [Darinaparsin] + Nc1ncn([C@H]2C[C@H](O)[C@@H](CO)O2)c(=O)n1 [Decitabine] (partner 2 µM)
In short: as §1

Cell Line | relative viability (QS11 + Foretinib; first compound 0.08 µM) | relative viability (QS11 + Foretinib; first compound 0.253 µM) | relative viability (QS11 + Foretinib; first compound 0.8 µM) | relative viability (QS11 + Foretinib; first compound 2.53 µM) | relative viability (QS11 + Foretinib; first compound 8 µM) | relative viability (AZ628 + Pemetrexed; first compound 0.08 µM) | relative viability (AZ628 + Pemetrexed; first compound 0.253 µM) | relative viability (AZ628 + Pemetrexed; first compound 0.8 µM) | relative viability (AZ628 + Pemetrexed; first compound 2.53 µM) | relative viability (AZ628 + Pemetrexed; first compound 8 µM) | relative viability ([1]; first compound 0.08 µM) | relative viability ([1]; first compound 0.8 µM) | relative viability ([1]; first compound 2.53 µM) | relative viability ([1]; first compound 8 µM) | relative viability ([2]; first compound 0.08 µM) | relative viability ([2]; first compound 0.8 µM) | relative viability ([2]; first compound 2.53 µM) | relative viability ([2]; first compound 8 µM)
NCI-H2023 | 0.721 | 0.883 | 0.686 | 0.999 | 0.852 | 0.272 | 0.208 | 0.193 | 0.201 | 0.125 | 0.696 | 0.306 | 0.357 | 0.425 | 0.219 | 0.219 | 0.196 | 0.216
NCI-H2342 | 1.02 | 1.07 | 1.07 | 1.02 | 1.19 | 0.89 | 0.683 | 0.761 | 0.702 | 0.793 | 0.545 | 0.443 | 0.53 | 0.44 | 0.712 | 0.688 | 0.76 | 0.702
COR-L23 | 0.976 | 1.03 | 0.716 | 0.802 | 0.735 | 0.22 | 0.23 | 0.198 | 0.219 | 0.21 | 0.208 | 0.225 | 0.24 | 0.196 | 0.496 | 0.394 | 0.348 | 0.496
NCI-H1734 | 0.842 | 0.932 | 0.91 | 0.772 | 0.713 | 0.375 | 0.423 | 0.397 | 0.391 | 0.34 | 0.276 | 0.257 | 0.256 | 0.297 | 0.558 | 0.483 | 0.504 | 0.529
NCI-H1703 | 0.306 | 0.309 | 0.333 | 0.422 | 0.322 |  |  |  |  |  |  |  |  |  |  |  |  | 
